Measurements reported in PubChem BioAssay AID330 (DTP/NCI, 2004).
Several values for one entry are separate records, joined by “and”; a condition that tells them apart may be missing. Equal entries are not always repeated. Inconclusive results and toxic doses are left out. The calls were made as follows: active = survival T/C of 150% or more; inactive = T/C below 125% in these data. Peptide text beside a SMILES is read from it. * marks the point of attachment. Trt = c1ccc(C(c2ccccc2)(c2ccccc2)*)cc1; Boc = CC(C)(C)OC(=O)*; Bn = c1ccc(C*)cc1

Test system: P388 leukemia ip, CD2F1 mice, survival T/C
Assay: NCI In Vivo Anticancer Drug Screen. Data for tumor model P388 Leukemia (intraperitoneal) in CD2F1 (CDF1) mice
Conditions: endpoint: median survival time, higher = longer survival
In short: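 Mice carrying the transplanted tumor received test compound or vehicle. Survival was recorded in each group, and the value is the treated-group measurement divided by that of the vehicle-treated control group.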

[1] = dose: 50.0 mg/kg/injection, schedule: Q01DX005 (ip), vehicle: Klucel (hydroxypropylcellulose) (HPC)
[2] = dose: 100.0 mg/kg/injection, schedule: Q01DX005 (ip), vehicle: Klucel (hydroxypropylcellulose) (HPC)
[3] = dose: 200.0 mg/kg/injection, schedule: Q01DX005 (ip), vehicle: Klucel (hydroxypropylcellulose) (HPC)
[4] = dose: 50.0 mg/kg/injection, schedule: Q01DX005 (ip), vehicle: saline with Tween-80
[5] = dose: 100.0 mg/kg/injection, schedule: Q01DX005 (ip), vehicle: saline with Tween-80
[6] = dose: 12.5 mg/kg/injection, schedule: Q04DX002 (ip), vehicle: saline with Tween-80
[7] = dose: 25.0 mg/kg/injection, schedule: Q04DX002 (ip), vehicle: saline with Tween-80
[8] = dose: 25.0 mg/kg/injection, schedule: Q01DX005 (ip), vehicle: Klucel (hydroxypropylcellulose) (HPC)
[9] = dose: 50.0 mg/kg/injection, schedule: Q01DX001 (ip), vehicle: Klucel (hydroxypropylcellulose) (HPC)
[10] = dose: 100.0 mg/kg/injection, schedule: Q01DX001 (ip), vehicle: Klucel (hydroxypropylcellulose) (HPC)
[11] = dose: 200.0 mg/kg/injection, schedule: Q01DX001 (ip), vehicle: Klucel (hydroxypropylcellulose) (HPC)
[12] = dose: 200.0 mg/kg/injection, schedule: Q01DX005 (ip), vehicle: saline with Tween-80
[13] = dose: 100.0 mg/kg/injection, schedule: Q01DX009 (ip), vehicle: Klucel (hydroxypropylcellulose) (HPC)
[14] = dose: 200.0 mg/kg/injection, schedule: Q01DX009 (ip), vehicle: Klucel (hydroxypropylcellulose) (HPC)

Measured: T/C

CC1=C([N+](=O)[O-])[C@@H](N2CCOCC2)[C@](C)(N2CCOCC2)S1
inactive: [1] 105 % of control | [2] 105 % of control | [3] 105 % of control

N=C(N)SCc1ccc(CSC(=N)N)s1
inactive: dose: 7.5 mg/kg/injection, schedule: Q01DX009 (ip), vehicle: saline 107 % of control | dose: 15.0 mg/kg/injection, schedule: Q01DX009 (ip), vehicle: saline 101 % of control | dose: 30.0 mg/kg/injection, schedule: Q01DX009 (ip), vehicle: saline 117 % of control

OCc1ccc2ccc3ccc(CO)nc3c2n1
inactive: dose: 12.5 mg/kg/injection, schedule: Q01DX005 (ip), vehicle: saline with Tween-80 97 % of control | dose: 25.0 mg/kg/injection, schedule: Q01DX005 (ip), vehicle: saline with Tween-80 111 % of control | [4] 104 % of control and 109 % of control | [5] 113 % of control

CC(=O)Oc1ccc(OC(C)=O)c2c(OC(C)=O)c(C(CC=C(C)C)OC(C)=O)cc(OC(C)=O)c12 (centres undefined)
inactive: [6] 108 % of control | [7] 117 % of control

Cc1ccccc1Nc1c2ccccc2nc2ccccc12
inactive: dose: 12.5 mg/kg/injection, schedule: Q04DX003 (ip), vehicle: saline with Tween-80 95 % of control | dose: 25.0 mg/kg/injection, schedule: Q04DX003 (ip), vehicle: saline with Tween-80 95 % of control | dose: 50.0 mg/kg/injection, schedule: Q04DX003 (ip), vehicle: saline with Tween-80 104 % of control

C/C(=N\NC(=S)N1CCC(C)CC1)c1nccnc1C
inactive: dose: 6.0 mg/kg/injection, schedule: Q01DX005 (ip), vehicle: Klucel (hydroxypropylcellulose) (HPC) 108 % of control | dose: 12.0 mg/kg/injection, schedule: Q01DX005 (ip), vehicle: Klucel (hydroxypropylcellulose) (HPC) 106 % of control | [8] 106 % of control

C=C(C1=CC(=O)C(C)=C(OC)C1=O)C(CC=C(C)C)OC(=O)/C(C)=C/C (centres undefined)
inactive: dose: 1.56 mg/kg/injection, schedule: Q01DX005 (ip), vehicle: Klucel (hydroxypropylcellulose) (HPC) 92 % of control | dose: 3.12 mg/kg/injection, schedule: Q01DX005 (ip), vehicle: Klucel (hydroxypropylcellulose) (HPC) 99 % of control | dose: 6.25 mg/kg/injection, schedule: Q01DX005 (ip), vehicle: Klucel (hydroxypropylcellulose) (HPC) 101 % of control | dose: 12.5 mg/kg/injection, schedule: Q01DX005 (ip), vehicle: Klucel (hydroxypropylcellulose) (HPC) 96 % of control | [8] 102 % of control

Nn1c(-c2nn[nH]n2)nnc1-c1nn[nH]n1 (tested in a mixture with another compound)
inactive: [9] 109 % of control | [10] 107 % of control | [11] 103 % of control

Cc1cccc(/C=C/C(=O)C(C)CN(C)C)c1 (centres undefined)
inactive: dose: 15.0 mg/kg/injection, schedule: Q01DX005 (ip), vehicle: saline 98 % of control | dose: 30.0 mg/kg/injection, schedule: Q01DX005 (ip), vehicle: saline 105 % of control | dose: 60.0 mg/kg/injection, schedule: Q01DX005 (ip), vehicle: saline 107 % of control and 116 % of control

COC(=O)C[C@H]1[C@]2(C)C[C@@]34OC5(C)O[C@]6([C@@H]7CC(=O)OC(c8ccoc8)[C@]7(C)[C@@H](OC(C)=O)C[C@]6(O5)[C@@]13C)[C@H](OC(=O)C(C)C)[C@]4(O)[C@H]2OC(=O)C(C)C (some centres undefined)
inactive: dose: 0.37 mg/kg/injection, schedule: Q01DX009 (ip), vehicle: Klucel (hydroxypropylcellulose) (HPC) 95 % of control | dose: 0.75 mg/kg/injection, schedule: Q01DX009 (ip), vehicle: Klucel (hydroxypropylcellulose) (HPC) 94 % of control | dose: 1.5 mg/kg/injection, schedule: Q01DX009 (ip), vehicle: Klucel (hydroxypropylcellulose) (HPC) 98 % of control | dose: 3.0 mg/kg/injection, schedule: Q01DX009 (ip), vehicle: Klucel (hydroxypropylcellulose) (HPC) 93 % of control

CCCCC[CH2][Ge]([CH2]CCCCC)([CH2]CCCCC)[O]C(C)=O
inactive: [9] 100 % of control and 107 % of control | [10] 101 % of control and 106 % of control | [11] 104 % of control and 115 % of control | dose: 400.0 mg/kg/injection, schedule: Q01DX001 (ip), vehicle: Klucel (hydroxypropylcellulose) (HPC) 120 % of control

O=C1CN(c2cccc(Cl)c2)C(=O)CN1/N=C/c1ccccn1
inactive: [4] 100 % of control | [5] 106 % of control | [12] 100 % of control

COc1ccc2c(c1)N(S(=O)(=O)c1ccc(C)cc1)C/C(=C\N1CCN(c3ccccc3)CC1)C2=O
inactive: [1] 96 % of control | [2] 98 % of control | [3] 91 % of control

Cc1ccc(S(=O)(=O)N2CC3CC=C(Cc4ccnc5ccccc45)CC(C2)C3=O)cc1 (centres undefined)
inactive: dose: 100.0 mg/kg/injection, schedule: Q04DX003 (ip), vehicle: Klucel (hydroxypropylcellulose) (HPC) 105 % of control | dose: 200.0 mg/kg/injection, schedule: Q04DX003 (ip), vehicle: Klucel (hydroxypropylcellulose) (HPC) 91 % of control | dose: 400.0 mg/kg/injection, schedule: Q04DX003 (ip), vehicle: Klucel (hydroxypropylcellulose) (HPC) 96 % of control

O=C1c2ccccc2C(=O)N1CC(O)COCc1ccccc1 (centres undefined)
inactive: [4] 102 % of control | [5] 98 % of control | [12] 100 % of control

COc1cc(OC)c(OC)cc1/C=N/NC(=O)N/N=C/c1cc(OC)c(OC)cc1OC
inactive: dose: 12.5 mg/kg/injection, schedule: Q01DX009 (ip), vehicle: distilled water + Tween-80 96 % of control | dose: 25.0 mg/kg/injection, schedule: Q01DX009 (ip), vehicle: distilled water + Tween-80 96 % of control | dose: 50.0 mg/kg/injection, schedule: Q01DX009 (ip), vehicle: distilled water + Tween-80 108 % of control | dose: 100.0 mg/kg/injection, schedule: Q01DX009 (ip), vehicle: distilled water + Tween-80 99 % of control | dose: 200.0 mg/kg/injection, schedule: Q01DX009 (ip), vehicle: distilled water + Tween-80 94 % of control | dose: 400.0 mg/kg/injection, schedule: Q01DX009 (ip), vehicle: distilled water + Tween-80 86 % of control

Cc1cc2nc(CC(=O)c3cccc([N+](=O)[O-])c3)c(=O)[nH]c2cc1C
inactive: dose: 7.5 mg/kg/injection, schedule: Q01DX005 (ip), vehicle: saline with Tween-80 95 % of control | dose: 15.0 mg/kg/injection, schedule: Q01DX005 (ip), vehicle: saline with Tween-80 96 % of control | dose: 30.0 mg/kg/injection, schedule: Q01DX005 (ip), vehicle: saline with Tween-80 91 % of control

O=c1c(N=Nc2ccccc2)c(C(O)C(O)CO)[nH]n1-c1ccc(Cl)cc1 (centres undefined)
inactive: dose: 63.5 mg/kg/injection, schedule: Q01DX001 (ip), vehicle: Klucel (hydroxypropylcellulose) (HPC) 87 % of control | dose: 127.0 mg/kg/injection, schedule: Q01DX001 (ip), vehicle: Klucel (hydroxypropylcellulose) (HPC) 89 % of control | dose: 254.0 mg/kg/injection, schedule: Q01DX001 (ip), vehicle: Klucel (hydroxypropylcellulose) (HPC) 100 % of control

Cc1nc2ncn(-c3ccccc3)c2c(=O)n1CC(C)C
inactive: [1] 100 % of control | [2] 101 % of control | [3] 102 % of control

CCCCCCCCCCCC(=O)N(CCOC(=O)c1ccco1)CCOC(=O)c1ccco1
inactive: dose: 50.0 mg/kg/injection, schedule: Q01DX009 (ip), vehicle: saline with Tween-80 108 % of control | dose: 100.0 mg/kg/injection, schedule: Q01DX009 (ip), vehicle: saline with Tween-80 91 % of control | dose: 200.0 mg/kg/injection, schedule: Q01DX009 (ip), vehicle: saline with Tween-80 87 % of control

NC(=S)c1ccc(C2Nc3ccc(Cl)cc3N2)cc1 (centres undefined)
inactive: [6] 106 % of control | [7] 94 % of control | dose: 50.0 mg/kg/injection, schedule: Q04DX002 (ip), vehicle: saline with Tween-80 90 % of control

Cc1ccccc1C1=NC2(CCCCC2)N=C1NN
inactive: dose: 50.0 mg/kg/injection, schedule: Q01DX009 (ip), vehicle: Klucel (hydroxypropylcellulose) (HPC) 104 % of control | [13] 98 % of control | [14] 91 % of control

CCOC(=O)CNC(=O)C(CSCc1ccccc1)NC(=O)C(CSC(c1ccccc1)(c1ccccc1)c1ccccc1)NC(=O)OC(C)(C)C (centres undefined) (Boc-Cys(Trt)-Cys(Bn)-Gly-OEt; configuration not given here)
inactive: [1] 101 % of control | [2] 101 % of control | [3] 99 % of control

O=c1oc(-c2ccccc2O)ns1
inactive: [13] 98 % of control | [14] 102 % of control | dose: 400.0 mg/kg/injection, schedule: Q01DX009 (ip), vehicle: Klucel (hydroxypropylcellulose) (HPC) 97 % of control
